Source: ChEMBL document CHEMBL5370625, “Design of Next-Generation DGAT2 Inhibitor PF-07202954 with Longer Predicted Half-Life” (ACS Med Chem Lett, 2023)
One block for each compound: values may come before it.

Key:
[1] = biological target: T1, Diacylglycerol O-acyltransferase 2 (Homo sapiens, UniProt Q96PD7)
T1 sequence (Q96PD7 whole entry): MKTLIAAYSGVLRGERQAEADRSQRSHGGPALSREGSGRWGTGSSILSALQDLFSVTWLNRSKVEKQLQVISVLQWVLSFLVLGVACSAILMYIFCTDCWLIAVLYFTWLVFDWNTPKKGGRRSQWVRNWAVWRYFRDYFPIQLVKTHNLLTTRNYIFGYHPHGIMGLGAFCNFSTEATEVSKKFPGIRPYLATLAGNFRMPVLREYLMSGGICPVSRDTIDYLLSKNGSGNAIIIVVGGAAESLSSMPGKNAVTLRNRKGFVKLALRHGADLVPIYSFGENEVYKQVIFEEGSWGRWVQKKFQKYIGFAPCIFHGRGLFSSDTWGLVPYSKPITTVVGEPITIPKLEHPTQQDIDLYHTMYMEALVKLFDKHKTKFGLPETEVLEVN
Description: Inhibition of human DGAT2 using 14C decanoyl-CoA as a substrate pre incubated for 2 hrs followed by substrate addition measured after 40 mins by Trilux Microbeta reader analysis

[2] = human, hepatocytes
Description: Apparent intrinsic clearance in human hepatocytes measured per million cells by LC-MS/MS analysis

physchem [3] = experiment: physchem
Description: Dissociation constant, pKa of the compound

physchem [4] = conditions: octanol/aqueous buffer, pH 7.4
in vitro = conditions: dog, MDCK
Description: Apparent permeability in MDCKII-LE cells incubated for 1.5 hrs

[5] = Oral bioavailability in cynomolgus monkey; type: ADME, organism-based, Macaca fascicularis; conditions: in vivo
[6] = Oral bioavailability in Wistar Han rat; type: ADME, organism-based; conditions: in vivo
[7] = Half life of the compound in po dosed cynomolgus monkey; type: ADME, organism-based, Macaca fascicularis; conditions: in vivo
[8] = Half life of the compound in Beagle dog plasma at 1 mg/kg, iv; type: ADME, organism-based, Canis lupus familiaris
[9] = Half life of the compound in cynomolgus monkey at 1 mg/kg, iv; type: ADME, organism-based, Macaca fascicularis; conditions: in vivo
[10] = Volume of distribution at steady state in po dosed cynomolgus monkey; type: ADME, organism-based, Macaca fascicularis; conditions: in vivo
[11] = Volume of distribution at steady state in po dosed Wistar Han rat; type: ADME, organism-based; conditions: in vivo
[12] = Volume of distribution at steady state in Beagle dog plasma at 1 mg/kg, iv; type: ADME, organism-based, Canis lupus familiaris; conditions: read-out: Vdss
Rattus norvegicus [13] = experiment: Hepatoprotective activity in western diet induced Sprague-Dawley rat model assessed as reduction in plasma triglycerides level at 100 mg/kg, po administered 7 days starting from day 14 post diet followed by single dose administration on day 8 and measured 2 hrs post last dose relative to control; type: functional; parameters: scale not given: the % may be the effect or the level left; conditions: time 8 day
[14] = Half life of the compound in Wistar Han rat at 1 mg/kg, iv; type: ADME, organism-based; conditions: in vivo
[15] = Clearance in po dosed Wistar Han rat; type: ADME, organism-based; conditions: in vivo
[16] = Clearance in po dosed cynomolgus monkey plasma; type: ADME, organism-based, Macaca fascicularis
[17] = Clearance in Beagle dog plasma at 1 mg/kg,iv; type: ADME, organism-based, Canis lupus familiaris
[18] = Renal clearance in po dosed Wistar Han rat; type: ADME, organism-based; conditions: in vivo
[19] = Renal clearance in po dosed cynomolgus monkey; type: ADME, organism-based, Macaca fascicularis; conditions: in vivo
[20] = Renal clearance in Beagle dog plasma at 1 mg/kg,iv; type: ADME, organism-based, Canis lupus familiaris
[21] = biological target: T2, Diacylglycerol O-acyltransferase 2 (Rattus norvegicus, UniProt Q5FVP8); experiment: Inhibition of rat DGAT2 using 14C decanoyl-CoA as a substrate pre incubated for 2 hrs followed by substrate addition measured after 40 mins by Trilux Microbeta reader analysis
T2 sequence (Q5FVP8 whole entry): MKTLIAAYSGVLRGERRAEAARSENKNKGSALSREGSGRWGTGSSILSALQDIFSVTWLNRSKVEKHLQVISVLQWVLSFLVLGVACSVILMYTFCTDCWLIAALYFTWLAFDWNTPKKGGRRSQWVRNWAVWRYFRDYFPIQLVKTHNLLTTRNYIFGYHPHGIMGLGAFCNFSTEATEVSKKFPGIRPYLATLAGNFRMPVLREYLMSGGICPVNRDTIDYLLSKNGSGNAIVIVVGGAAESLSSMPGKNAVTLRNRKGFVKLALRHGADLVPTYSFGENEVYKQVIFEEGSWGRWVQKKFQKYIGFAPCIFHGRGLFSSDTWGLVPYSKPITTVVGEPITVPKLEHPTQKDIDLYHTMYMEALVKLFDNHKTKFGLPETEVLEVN

Rattus norvegicus [22] = experiment: Hepatoprotective activity in western diet induced Sprague-Dawley rat model assessed as reduction in liver triglycerides level at 100 mg/kg, po administered 7 days starting from day 14 post diet followed by single dose administration on day 8 and measured 2 hrs post last dose relative to control; type: functional; parameters: scale not given: the % may be the effect or the level left; conditions: time 8 day
Rattus norvegicus [23] = experiment: Hepatoprotective activity in po dosed western diet induced Sprague-Dawley rat model assessed as reduction in plasma triglycerides level administered 7 days starting from day 14 post diet followed by single dose administration on day 8 and measured 2 hrs post last dose; type: functional, organism-based; conditions: dose 3-100 mg/kg, time 8.0 day
Rattus norvegicus [24] = experiment: Hepatoprotective activity in po dosed western diet induced Sprague-Dawley rat model assessed as reduction in liver triglycerides level administered 7 days starting from day 14 post diet followed by single dose administration on day 8 and measured 2 hrs post last dose; type: functional, organism-based; conditions: dose 3-100 mg/kg, time 8.0 day
[25] = Apparent intrinsic clearance in human hepatocytes measured per million cells at 1 uM incubated for 4 hrs by relay method; type: ADME, cell-based, Hepatocyte
[26] = biological target: T3, Diacylglycerol O-acyltransferase 1 (Homo sapiens, UniProt O75907); experiment: Inhibition of DGAT1 (unknown origin)
T3 sequence (O75907 whole entry): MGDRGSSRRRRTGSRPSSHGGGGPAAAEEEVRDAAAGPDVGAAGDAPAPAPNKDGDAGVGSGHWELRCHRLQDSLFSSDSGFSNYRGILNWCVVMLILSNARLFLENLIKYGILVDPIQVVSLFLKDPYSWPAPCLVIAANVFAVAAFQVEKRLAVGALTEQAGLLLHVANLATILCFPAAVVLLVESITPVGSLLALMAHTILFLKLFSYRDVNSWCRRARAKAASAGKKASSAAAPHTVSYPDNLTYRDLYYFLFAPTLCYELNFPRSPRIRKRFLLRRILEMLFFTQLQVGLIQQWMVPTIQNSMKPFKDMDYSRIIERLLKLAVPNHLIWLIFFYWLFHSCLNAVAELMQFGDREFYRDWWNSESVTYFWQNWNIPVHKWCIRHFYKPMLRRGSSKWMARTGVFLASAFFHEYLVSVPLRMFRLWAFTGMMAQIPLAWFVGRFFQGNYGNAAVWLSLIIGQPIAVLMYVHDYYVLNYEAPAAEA

Rattus norvegicus [27] = experiment: Hepatoprotective activity in po dosed high sucrose diet induced Sprague-Dawley rat model assessed as reduction in plasma triglycerides level measured after 2 to 4 hrs post last dose; type: functional, organism-based; conditions: dose 10-100 mg/kg, time 2-4 hrs
Rattus norvegicus [28] = experiment: Hepatoprotective activity in po dosed high sucrose diet induced Sprague-Dawley rat model assessed as reduction in liver triglycerides level measured after 2 to 4 hrs post last dose; type: functional, organism-based; conditions: dose 10-100 mg/kg, time 2-4 hrs
[29] = Volume of distribution at steady state in cynomolgus monkey at 1 mg/kg, iv; type: ADME, organism-based, Macaca fascicularis; conditions: in vivo, read-out: Vdss
[30] = Half life of the compound in po dosed Wistar Han rat; type: ADME, organism-based; conditions: in vivo
[31] = Renal clearance in Wistar Han rat at 1 mg/kg, iv; type: ADME, organism-based; conditions: in vivo
[32] = Renal clearance in cynomolgus monkey plasma at 1 mg/kg, iv; type: ADME, organism-based, Macaca fascicularis
[33] = Volume of distribution at steady state in Wistar Han rat at 1 mg/kg, iv; type: ADME, organism-based; conditions: in vivo, read-out: Vdss
[34] = Clearance in Wistar Han rat plasma at 1 mg/kg,iv; type: ADME, organism-based

IC50 [1]: 500 nM
CLH(app) [2]: < 1.8 µL/min
pKa (physchem [3]): 9.2
logD at 1 h (physchem [4]): -0.9
Papp at 1.5 h (in vitro): 0.39 ×10⁻⁶ cm/s
SMILES: CCOc1cccnc1Oc1cncc(-c2ncc(C(=O)N[C@H]3CCNC3)cn2)c1

IC50 [1]: 16 nM
CLH(app) [2]: < 1.9 µL/min
pKa (physchem [3]): 8
logD at 1 h (physchem [4]): 0.96
Papp at 1.5 h (in vitro): 4.7 ×10⁻⁶ cm/s
SMILES: CCOc1cccnc1Oc1cncc(-c2ncc(C(=O)N[C@@H]3CNCC[C@@H]3F)cn2)c1

bioavailability [5]: 21%
bioavailability [6]: 12%
half-life [7]: 6.5 h
half-life [8]: 1.5 h
half-life [9]: 1.4 h
Vdss [10]: 1.6 L/kg
Vdss [11]: 2.7 L/kg
Vd [12]: 2.1 L/kg
half-life [14]: 0.9 h
CL/F [15]: 64 mL/min/kg
CL/F [16]: 17 mL/min/kg
clearance [17]: 22 mL/min/kg
CL renal [18]: 7.5 mL/min/kg
CL renal [19]: 0.29 mL/min/kg
CL renal [20]: 5.5 mL/min/kg
IC50 [21]: 17 nM
CLH(app) [25]: 0.99 µL/min
IC50 [26]: > 50000 nM
logD at 1 h (physchem [4]): 1.4
Papp at 1.5 h (in vitro): 2.9 ×10⁻⁶ cm/s
SMILES: CCOc1cccnc1Oc1cncc(-c2ncc(C(=O)N[C@@H]3CNC[C@@H](F)C3)cn2)c1
Activity (Rattus norvegicus [13]): 71%
Activity (Rattus norvegicus [22]): 48%
Activity (Rattus norvegicus [23]): Dose-Dependent Effect
Activity (Rattus norvegicus [24]): Dose-Dependent Effect
Activity (Rattus norvegicus [27]): Dose-Dependent Effect
Activity (Rattus norvegicus [28]): Dose-Dependent Effect

IC50 [1]: 22000 nM
pKa (physchem [3]): 10.1
logD at 1 h (physchem [4]): -0.19
Papp at 1.5 h (in vitro): 1.3 ×10⁻⁶ cm/s
SMILES: CCOc1cccnc1Oc1cncc(-c2ncc(C(=O)NC3CCNCC3)cn2)c1

CLH(app) [2]: < 1.9 µL/min
logD at 1 h (physchem [4]): 1.4
Papp at 1.5 h (in vitro): 8.8 ×10⁻⁶ cm/s
SMILES: CCOc1cccnc1Oc1cncc(-c2ncc(C(=O)N[C@@H]3CNCC[C@H]3F)cn2)c1

CLH(app) [2]: < 1.9 µL/min
logD at 1 h (physchem [4]): 1.3
Papp at 1.5 h (in vitro): 2.5 ×10⁻⁶ cm/s
SMILES: CCOc1cccnc1Oc1cncc(-c2ncc(C(=O)N[C@H]3CNC[C@H](F)C3)cn2)c1

IC50 [1]: 4.4 nM
CLH(app) [2]: 38 µL/min
pKa (physchem [3]): 4.5
logD at 1 h (physchem [4]): 2.8
Papp at 1.5 h (in vitro): 30 ×10⁻⁶ cm/s
SMILES: CCOc1cccnc1Oc1cncc(-c2ncc(C(=O)N[C@H]3CC[C@@H](C(F)(F)F)NC3)cn2)c1 (relative stereo)

CLH(app) [2]: 4.7 µL/min
pKa (physchem [3]): 6.4
logD at 1 h (physchem [4]): 1.8
Papp at 1.5 h (in vitro): 18 ×10⁻⁶ cm/s
SMILES: CCOc1cccnc1Oc1cncc(-c2ncc(C(=O)N[C@@H]3CNCCC3(F)F)cn2)c1

CLH(app) [2]: 9.3 µL/min
logD at 1 h (physchem [4]): 2.3
Papp at 1.5 h (in vitro): 14 ×10⁻⁶ cm/s
SMILES: CCOc1cccnc1Oc1cncc(-c2ncc(C(=O)N[C@@H]3CNCC(F)(F)C3)cn2)c1

bioavailability [5]: 48%
bioavailability [6]: 31%
half-life [7]: 3.9 h
Vd [29]: 0.71 L/kg
half-life [30]: 1.4 h
CL renal [31]: < 0.1 mL/min/kg
CL renal [32]: < 0.1 mL/min/kg
CLH(app) [25]: 3.9 µL/min
logD at 1 h (physchem [4]): 1.9
Papp at 1.5 h (in vitro): 19 ×10⁻⁶ cm/s
SMILES: CCOc1cccnc1Oc1cncc(-c2ncc(C(=O)N[C@H]3CCOC3)cn2)c1 [PF-06865571]

IC50 [1]: 200 nM
CLH(app) [2]: 6.6 µL/min
pKa (physchem [3]): 6.8
logD at 1 h (physchem [4]): 1.7
Papp at 1.5 h (in vitro): 13 ×10⁻⁶ cm/s
SMILES: CCOc1cccnc1Oc1cncc(-c2ncc(C(=O)N[C@@H]3CNC[C@H](F)C3)cn2)c1 (racemic)

bioavailability [6]: < 1%
IC50 [1]: 410 nM
Vd [33]: 4.1 L/kg
half-life [14]: 1.9 h
clearance [34]: 51 mL/min/kg
CL renal [31]: 5.2 mL/min/kg
CLH(app) [2]: < 3 µL/min
pKa (physchem [3]): 9.2
logD at 1 h (physchem [4]): -0.15
Papp at 1.5 h (in vitro): 0.68 ×10⁻⁶ cm/s
SMILES: CCOc1cccnc1Oc1cncc(-c2ncc(C(=O)N[C@@H]3CCNC3)cn2)c1
